Results taken from US20250170183A1, “METHOD FOR ENRICHING MUSE CELLS AND OBTAINING EXOSOMES, MICROVESICLES OR THE SECRETOME THEREFROM” (priority 2022, published 2025).

Tested on: Carrageenan-induced paw edema
Assay: Carrageenan-induced paw edema model
Type: in vivo, C57BL/6 mice
Settings: single i.p. dose, 1.5 hours after administration; FIG. 5
Description: In order to assess the anti-inflammatory effect of the Muse cell derived EVs, various EV fractions were analyzed for anti-inflammatory efficacy using the paw edema model [16].
In our initial experiment, fifty-five female C57BL/6 mice (Charles River, Eastern Europe) were randomly assigned to one of five treatment groups: • (1) (−) Control (PBS) • (2) (+) Control (Dexamethasone: 20-30 mg/kg) • (3) EV100 (1, 10, or 100 billion EVs) • (4) EV500 (1, 10, or 100 billion EVs) • (5) Muse cell enriched culture (100K, 1 million, or 10 million cells)
Paw edema was induced in each animal by intra-plantar injection of 20 μl of a 1% (w/v) aqueous Carrageenan solution (SIGMA Aldrich) into the right hind paw.
Thirty minutes after the carrageenan injection, each animal received one dose of the control agent (treatment groups 1-2) or experimental agents (treatment groups 3-5) according to the respective assigned treatment group. The agent was administered by intra peritoneal (i.p.) injection. PBS was also used to resuspend EV100 and EV500 samples.
The intensity of the edema development and/or the amelioration thereof was assessed by measuring the paw width (the distance from one outer finger to the opposite outer finger) or paw thickness of the treated paw prior to treatment administration, and 2 h, 24 h, 48 h, and 72 h after administration of the control and experimental agents. […]

SMILES: C[C@@H]1C[C@H]2[C@@H]3CCC4=CC(=O)C=C[C@]4(C)[C@@]3(F)[C@@H](O)C[C@]2(C)[C@@]1(O)C(=O)CO [dexamethasone]
- paw thickness, immediate response: no effect
